Data as given in ChEMBL document CHEMBL3638563, “Quinazoline compounds as kinase inhibitors” (2014).
pIC50: −log10 of the molar value.

Key:
[1] = biological target: Serine/threonine-protein kinase B-raf (Homo sapiens, UniProt P15056); test: (§1) Kinase Assay: Inhibition of kinase activity by test compound disclosed herein was estimated by quantifying the amount of [33P] incorporation of substrate in the presence of test compound. Standard assay conditions were 2 ng of recombinant C-Raf or 5 ng of recombinant B-Raf or 5 ng of recombinant B-Raf (V600E) kinase (Upstate Biotechnology) with 500 ng MEK1(K97R) in assay buffer {8 μM ATP, 0.5 μCi [33P]ATP (specific activity 3000 Ci/mmol, PerkinElmer), 50 mM Tris/HCl (pH7.5), and 1 mM EGTA, 1 mM Na3VO4, 1% 2-mercaptoethanol, 0.1% Brij 35, and 0.2 mg/ml BSA} at a final volume of 25 μL. Reactions were incubated at 30° C. for 30 min and stopped by adding 3% phosphoric acid, harvested onto a 96-well GF/B UniFilter (PerkinElmer) using a unifilter harvester (PerkinElmer), and counted with a TopCount microplate scintillation counter (PerkinElmer). The IC50 values of inhibitors were determined after carrying out assays at 3-fold serially diluted concentrations of each compound in duplication.
[2] = biological target: RAF proto-oncogene serine/threonine-protein kinase (Homo sapiens, UniProt P04049); test: as §1
Sequence of RAF proto-oncogene serine/threonine-protein kinase (P04049 whole entry): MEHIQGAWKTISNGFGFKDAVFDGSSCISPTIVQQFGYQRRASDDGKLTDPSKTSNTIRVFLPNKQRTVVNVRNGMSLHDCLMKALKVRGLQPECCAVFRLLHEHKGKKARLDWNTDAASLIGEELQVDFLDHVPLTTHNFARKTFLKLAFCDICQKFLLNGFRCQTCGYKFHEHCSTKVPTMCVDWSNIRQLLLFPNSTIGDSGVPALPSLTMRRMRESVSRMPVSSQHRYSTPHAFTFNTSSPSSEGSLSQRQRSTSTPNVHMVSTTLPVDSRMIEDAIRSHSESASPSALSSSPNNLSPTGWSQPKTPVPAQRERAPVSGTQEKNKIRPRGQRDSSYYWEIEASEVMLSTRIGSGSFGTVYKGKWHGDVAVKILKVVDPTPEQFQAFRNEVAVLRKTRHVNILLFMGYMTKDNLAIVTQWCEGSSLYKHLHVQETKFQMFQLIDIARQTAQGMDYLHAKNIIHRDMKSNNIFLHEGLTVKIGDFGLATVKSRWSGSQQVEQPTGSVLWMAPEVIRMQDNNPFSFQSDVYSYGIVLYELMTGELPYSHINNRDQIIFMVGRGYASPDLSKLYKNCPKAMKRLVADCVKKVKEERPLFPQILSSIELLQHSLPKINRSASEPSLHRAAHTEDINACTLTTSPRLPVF

Sequence of Serine/threonine-protein kinase B-raf (P15056 whole entry): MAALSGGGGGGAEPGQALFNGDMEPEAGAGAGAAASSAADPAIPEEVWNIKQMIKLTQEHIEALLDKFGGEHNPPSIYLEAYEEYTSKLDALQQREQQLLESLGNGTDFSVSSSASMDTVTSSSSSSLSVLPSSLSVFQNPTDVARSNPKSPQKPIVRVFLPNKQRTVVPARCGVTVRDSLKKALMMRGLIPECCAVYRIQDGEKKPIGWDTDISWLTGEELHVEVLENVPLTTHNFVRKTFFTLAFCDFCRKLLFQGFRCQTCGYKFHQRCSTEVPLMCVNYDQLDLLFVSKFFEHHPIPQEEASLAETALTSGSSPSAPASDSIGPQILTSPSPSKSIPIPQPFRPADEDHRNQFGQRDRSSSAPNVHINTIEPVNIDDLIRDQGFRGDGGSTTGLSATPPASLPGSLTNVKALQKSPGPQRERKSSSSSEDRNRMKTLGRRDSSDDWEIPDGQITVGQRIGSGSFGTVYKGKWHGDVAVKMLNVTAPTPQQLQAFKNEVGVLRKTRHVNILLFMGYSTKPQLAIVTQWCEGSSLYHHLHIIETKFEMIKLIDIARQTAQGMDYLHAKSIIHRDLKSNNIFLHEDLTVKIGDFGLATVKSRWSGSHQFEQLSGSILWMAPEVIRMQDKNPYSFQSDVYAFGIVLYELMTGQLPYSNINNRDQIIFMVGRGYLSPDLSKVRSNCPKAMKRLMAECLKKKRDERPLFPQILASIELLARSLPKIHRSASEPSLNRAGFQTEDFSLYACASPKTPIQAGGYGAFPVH

- pIC50 [1]: 6.60
- pIC50 [2]: 5.63
SMILES: Nc1ccc(F)c(-c2ccc3ncnc(Nc4cccc5[nH]ncc45)c3c2)c1
